This note sets out measurements from PMC7478165, “Derivatisation of parthenolide to address chemoresistant chronic lymphocytic leukaemia” (MedChemComm, 2019).

In data set [1] the test system is MEC1 CLL cell line. Put plainly: alamarBlue assay, in vitro antileukaemic activity against MEC1 CLL cell line. It counts as cell-based. As to conditions: MEC1 cell line, alamarBlue assay, library screen; read-out: EC50 ave. (The colour change of resazurin is a common sign of viable cells or microbes.)
A short description of the next data set: in vitro. The settings on record: mouse, microsomes.
The subject of data set [2] is MEC1 CLL cell line. Put plainly: cells. Further details: alamarBlue (resazurin reduction) cytotoxicity assay in MEC1 CLL cells, n = 5. The settings on record: Homo sapiens, read-out: alamarBlue EC50 (uM) average n=5. As for the experimental part: Comparison of the activity of 5f with 1 (PTL) and 2a (DMAPT) Biological efforts at University of Birmingham Tissue culture, MEC1 cells were obtained from the American Type Culture Collection (Manassas, VA 20110 USA) and were cultured in RPMI 1640 medium (Sigma-Aldrich, Irvine, UK) with 10% fetal bovine serum (Sigma-Aldrich). The alamarBlue® cytotoxicity assay was conducted by seeding MEC1 cells in triplicate at density of 25000 cells/well in a 96 well plate, final volume of 200 μL. Following treatment with test compound, viability was determined by measuring the reduction of resazurin. Resazurin solution was added to each well at a final concentration of 50 μg/mL and incubated for 3 hours at 37 °C with 5% CO2. Reduction of resazurin was determined by measuring […] at 590 nm using a PheraSTAR FS plate reader (BMG Labtech). Cell viability was calculated as a fraction of the untreated cells after subtracting background fluorescence of resazurin in media only. Data is presented as the mean of five independent experiments and significance was determined by Student’s t-test.

The term EC50 denotes the concentration that produces a half-maximal response. The term microsomal CLint denotes the capacity of the preparation to metabolise the compound, expressed as a volume cleared per time. The low end stands for slow turnover, the high end for rapid turnover.

Consider `C/C1=C\CC[C@@]2(C)O[C@@H]2[C@H]2OC(=O)[C@@H](CN3CCC(O)(c4ccccc4)CC3)[C@@H]2CC1` [Compound 5e], for which the EC50 in the data set on MEC1 CLL cell line [1] is under 15 µM. For the same molecule, the intrinsic metabolic clearance (microsomal CLint) in the data set “in vitro” was over 100 µL/min/mg.

For `C/C1=C\CC[C@@]2(C)O[C@@H]2[C@H]2OC(=O)[C@@H](CN(C)C)[C@@H]2CC1` [DMAPT, dimethyl amino-PTL], in the data set on MEC1 CLL cell line [2], the EC50 is 5.3 µM.
